# Laboratory results reported in article PMC6272341, “Synthesis and Biological Evaluation of N-Alkoxyphenyl-3-hydroxynaphthalene-2-carboxanilides” (Molecules, 2015).
# Values joined by “and” are separate entries in the source; they are usually repeats but may differ in a detail not shown here. Equal entries are not always repeated. Where two headings read alike, the source gives them in different places.
# Key:
# [1] = system: M. tuberculosis H37Ra ATCC 25177; assay: In vitro antimycobacterial evaluation, alamarBlue (MIC); format: cell-based; settings: Mycobacterium tuberculosis, 168 h, read-out: MIC MT
# Method: The evaluation of the in vitro antimycobacterial activity of the compounds was performed against M. tuberculosis H37Ra ATCC 25177 [25] and clinical isolate of M. avium subsp. paratuberculosis CIT03 [26], see Table 1. The activity of compounds was expressed as the minimum inhibitory concentration (MIC) that is defined for mycobacteria as a 90% or greater (IC90) reduction of growth in comparison with the control. The MIC/IC90 value is routinely and widely used in bacterial assays, being a standard detection limit according to the Clinical and Laboratory Standards Institute.
# Mycobacterium tuberculosis H37Ra ATCC 25177 and well characterised clinical isolate M. avium subsp. paratuberculosis CIT03 were grown in Middlebrook broth (MB), supplemented with Oleic-Albumin-Dextrose-Catalase supplement (Becton Dickinson, Oxford, UK) and mycobactin J (2 μg/mL). Identification of these isolates was performed using biochemical and molecular protocols. At log phase growth, a culture sample (10 mL) was centrifuged at 15,000 rpm/20 min using a bench top centrifuge (Model CR 4-12, Jouan Inc., Winchester, VA, USA). Following removal of the supernatant, the pellet was washed in fresh Middlebrook 7H9GC broth and re-suspended in fresh supplemented MB (10 mL). The turbidity was adjusted to match McFarland standard No. 1 (3 × 10^8 cfu) with MB broth. A further 1:20 dilution of the culture was then performed in MB broth. The antimicrobial susceptibility of all three mycobacterial species was investigated in a 96-well plate format. In these experiments, sterile deionised water (300 µL) was added to all outer-perimeter wells of the plates to minimize evaporation of the medium in the test wells during incubation. Sample wells were composed of 100 µL of test compound dilution and 100 µL of the bacterial stock being tested against. Dilutions of each compound were prepared in duplicate. For all synthesized compounds, final concentrations ranged from 1000 μg/mL to 8 μg/mL. All compounds were prepared in DMSO and subsequent dilutions were made in supplemented MB. The plates were sealed with parafilm and incubated at 37 °C, for 7 days in the case of M. tuberculosis and 11 days in the case of M. avium subsp. paratuberculosis. Following incubation, a 10% addition of alamarBlue (AbD Serotec, Kidlington, UK) was mixed into each well and readings at 570 nm and 600 nm were taken, initially for background subtraction and subsequently after 24 h re-incubation. The background subtraction is necessary for strongly coloured compounds, where the colour may interfere with the interpretation of any colour change. For non-interfering compounds, a blue colour in the well was interpreted as an absence of growth and a pink colour was scored as growth. […] The MIC value is routinely and widely used in bacterial assays and is a standard detection limit according to the Clinical and Laboratory Standards Institute (CLSI,). Rifampicin (Sigma-Aldrich) was used as the standard as it is clinically used antimycobacterial drugs.
# [2] = system: clinical isolate of M. avium subsp. paratuberculosis CIT03; assay: as above; format: cell-based; settings: Mycobacterium avium, 264 h, read-out: MIC MAP
# [3] = system: human monocytic leukemia THP-1 cells; settings: 24 h
# S. aureus ATCC 29213 = assay: In vitro antibacterial susceptibility testing, broth dilution micro-method (MIC); settings: Staphylococcus aureus, ATCC29213, 24 h, read-out: MIC SA
# [4] = system: methicillin-resistant S. aureus clinical isolate MRSA 63718; assay: as above; settings: for MIC: Staphylococcus aureus, MRSA, read-out: MIC MRSA 63718, clinical isolate MRSA 63718
# [5] = system: methicillin-resistant S. aureus clinical isolate SA 630; assay: as above; settings: 24 h; for MIC: Staphylococcus aureus, MRSA, read-out: MIC MRSA SA 630, clinical isolate MRSA SA 630, 37 °C, MH broth
# [6] = system: methicillin-resistant S. aureus clinical isolate SA 3202; assay: as above; settings: 24 h; for MIC: Staphylococcus aureus, MRSA, read-out: MIC MRSA 3202, clinical isolate MRSA 3202, 37 °C, MH broth
# [7] = system: photosynthetic electron transport in spinach chloroplasts; assay: Inhibition of photosynthetic electron transport (PET), DCPIP photoreduction (Hill reaction); format: biochemical, spinach (Spinacia oleracea L.)
# Method: The PET inhibiting activity of the compounds was expressed by IC50 values. […] The aqueous solubility of the para-substituted compounds was limited; therefore IC50 values could not be determined due to precipitation of compounds during experiment. […]
# Chloroplasts were prepared from spinach (Spinacia oleracea L.) according to Masarovicova and Kralova. The inhibition of photosynthetic electron transport (PET) in spinach chloroplasts was determined spectrophotometrically (Genesys 6, Thermo Scientific Corporation), using an artificial electron acceptor 2,6-dichlorophenol-indophenol (DCPIP) according to Kralova et al., and the rate of photosynthetic electron transport was monitored as a photoreduction of DCPIP. The measurements were carried out in phosphate buffer (20.0 mM, pH 7.2) containing sucrose (0.4 M), MgCl2 (5.0 mM) and NaCl (15.0 mM). The chlorophyll content was 30 mg/L in these experiments and the samples were irradiated (~100 W/m^2 with 10 cm distance) with a halogen lamp (250 W) using a 4 cm water filter to prevent warming of the samples (suspension temperature 22 °C). The studied compounds were dissolved in DMSO due to their limited aqueous solubility. The applied DMSO concentration (up to 4%) had negligible effect on the photochemical activity in isolated spinach chloroplasts (observed differences in DCPIP photoreduction due DMSO addition were within experimental error). The inhibitory efficiency of the studied compounds was expressed by IC50 values, i.e., by molar concentration of the compounds causing 50% decrease in DCPIP photoreduction relative to the untreated control. […] All reagents used in this study were of analytical grade and were purchased from Sigma.
# [8] = M. tuberculosis H37Ra, 7 days, 37 °C, alamarBlue, MIC/IC90
# [9] = M. avium subsp. paratuberculosis CIT03, 11 days, 37 °C, alamarBlue, MIC/IC90
SMILES,"MIC [1, 8] [µM]","MIC [2, 9] [µM]",LD50 [3] [µM],MIC (S. aureus ATCC 29213) [µM],"MIC ([4]; 24 h, 24 h, 37 °C, MH broth) [µM]",MIC [5] [µM],MIC [6] [µM],MIC [2] [µM],IC50 [7],activity fold higher than that of ampicillin ([4]; antibacterial activity against MRSA strains versus ampicillin) [fold],"MIC MRSA 63718 ([4]; clinical isolate MRSA 63718, 24 h, 37 °C, MH broth) [µM]","MIC MRSA SA 630 ([5]; clinical isolate MRSA SA 630, 37 °C, MH broth) [µM]","MIC MRSA 3202 ([6]; clinical isolate MRSA 3202, 37 °C, MH broth) [µM]",MIC [1] [µM]
"CCC(C)Oc1ccc(NC(=O)c2cc3ccccc3cc2O)cc1 (centres unmarked) [Compound 8c, N-[4-(But-2-yloxy)phenyl]-3-hydroxynaphthalene-2-carboxamide]",89,745,>30,763,763,763,763,–,–,–,–,–,–,–
"CCCCOc1ccc(NC(=O)c2cc3ccccc3cc2O)cc1 [Compound 6c, N-(4-Butoxyphenyl)-3-hydroxynaphthalene-2-carboxamide]",745,–,>30,763,763,763,763,745,–,–,–,–,–,–
"CCCCOc1ccccc1NC(=O)c1cc2ccccc2cc1O [Compound 6a, N-(2-Butoxyphenyl)-3-hydroxynaphthalene-2-carboxamide]",373,745,>30,763,763,763,763,–,182 µM,–,–,–,–,–
"CCOc1ccc(NC(=O)c2cc3ccccc3cc2O)cc1 [Compound 4c, N-(4-Ethoxyphenyl)-3-hydroxynaphthalene-2-carboxamide]",813,–,>30,832,832,832,832,813,–,–,–,–,–,–
"CC(C)Oc1ccc(NC(=O)c2cc3ccccc3cc2O)cc1 [Compound 7c, 3-Hydroxy-N-[4-(prop-2-yloxy)phenyl]naphthalene-2-carboxamide]",389,778,>30,796,796,796,796,–,–,–,–,–,–,–
"CN(C)C(=O)Nc1ccc(Cl)c(Cl)c1 [DCMU, 3-(3,4-dichlorophenyl)-1,1-dimethylurea, reference compound]",–,–,–,–,–,–,–,–,~1.9 µM and 1.9 µM,–,–,–,–,–
"CCCOc1cccc(NC(=O)c2cc3ccccc3cc2O)c1 [Compound 5b, 3-Hydroxy-N-(3-propoxyphenyl)naphthalene-2-carboxamide]",778,–,–,796,796,796,796,778,4.8 µM,–,–,–,–,–
"CCCOc1ccccc1NC(=O)c1cc2ccccc2cc1O [Compound 5a, 3-Hydroxy-N-(2-propoxyphenyl)naphthalene-2-carboxamide]",778,–,–,12.4,12,12,12,778,128 µM,~4,12.4,12.4,12.4,–
"CC1(C)S[C@@H]2[C@H](NC(=O)[C@H](N)c3ccccc3)C(=O)N2[C@H]1C(=O)O [APC, ampicillin, reference compound]",–,–,–,5.7,> 46,> 46,> 46,–,–,–,–,–,–,–
"CCOc1ccccc1NC(=O)c1cc2ccccc2cc1O [Compound 4a, N-(2-Ethoxyphenyl)-3-hydroxynaphthalene-2-carboxamide]",813,–,>30,832,832,832,832,813,76.1 µM,–,–,–,–,–
"CCCCOc1cccc(NC(=O)c2cc3ccccc3cc2O)c1 [Compound 6b, N-(3-Butoxyphenyl)-3-hydroxynaphthalene-2-carboxamide]",745,–,16.5 ± 0.8,763,763,763,763,745,7.8 µM,–,–,–,–,–
"COc1ccc(NC(=O)c2cc3ccccc3cc2O)cc1 [Compound 3c, 3-hydroxy-N-(4-methoxyphenyl)naphthalene-2-carboxamide]",852,–,>30,873,873,873,873,852,–,–,–,–,–,–
"CC(C)Oc1ccccc1NC(=O)c1cc2ccccc2cc1O [Compound 7a, 3-Hydroxy-N-[2-(prop-2-yloxy)phenyl]naphthalene-2-carboxamide]",389,778,>30,796,796,796,796,–,138 µM,–,–,–,–,–
"CO[C@H]1/C=C/O[C@@]2(C)Oc3c(C)c(O)c4c(O)c(c(/C=N/N5CCN(C)CC5)c(O)c4c3C2=O)NC(=O)/C(C)=C\C=C\[C@H](C)[C@H](O)[C@@H](C)[C@@H](O)[C@@H](C)[C@H](OC(C)=O)[C@@H]1C [RIF, rifampicin, reference compound]",10,109,–,–,–,–,–,–,–,–,–,–,–,–
"COc1ccccc1NC(=O)c1cc2ccccc2cc1O [Compound 3a, 3-hydroxy-N-(2-methoxyphenyl)naphthalene-2-carboxamide]",51,205,–,55,55,55,55,–,59.5 µM,–,–,–,–,–
"O=C(Nc1ccccc1)c1cc2ccccc2cc1O [Compound 2, 3-Hydroxy-N-phenylnaphthalene-2-carboxamide]",–,950,>30,972,972,972,972,–,–,–,–,–,–,950
"CCCOc1ccc(NC(=O)c2cc3ccccc3cc2O)cc1 [Compound 5c, 3-Hydroxy-N-(4-propoxyphenyl)naphthalene-2-carboxamide]",778,–,>30,796,796,796,796,778,–,–,–,–,–,–
